Laboratory results taken from article PMC5686453 (ACS chemical neuroscience, 2017).
Entries after “also recorded” stand apart in the source; their conditions may differ.

How the values were obtained:
[1] = biological target: α1β3γ2L GABAA receptor (Rattus norvegicus, UniProt P18508+P62813, INS375LLRMFSFK); type: cell-based; details: for peak response (potentiation of the response to GABA): α1β3γ2L, percentage of the response to GABA alone
[2] = biological target: α3β3γ2L GABAA receptor (Rattus norvegicus, UniProt P18508+P20236, INS375LLRMFSFK); type: cell-based; details: for peak response (potentiation of the response to GABA): α3β3γ2L, percentage of the response to GABA alone
[3] = test system: mice; test: Pilot study of a larger dose; type: in vivo; details: 32 mg/kg
[4] = biological target: α2β3γ2L GABAA receptor (UniProt P18508+P47869, INS375LLRMFSFK); type: cell-based, human; details: for peak response (potentiation of the response to GABA): α2β3γ2L, percentage of the response to GABA alone
[5] = test system: acetic acid-depressed locomotion in mice; test: Acetic acid-depressed locomotor activity; type: in vivo, ICR mice; details: s.c. pretreatment, 0.6% acetic acid
[6] = test system: lactic acid-depressed locomotion in mice; test: Lactic acid-depressed locomotor activity; parameters: species or system ICR mice; details: mouse, in vivo
[7] = test system: 0.32% lactic acid-induced writhing in mice; type: in vivo, ICR mice; details: s.c. pretreatment, 25 min observation
[8] = biological target: α5-containing GABAA receptors (with β3, γ2L) (Rattus norvegicus, UniProt P18508+P19969, INS375LLRMFSFK); type: cell-based; details: 0.1 μM modulator, 0.3 μM GABA
[9] = test system: acetic acid-depressed nesting in mice; test: Acetic acid-depressed nesting; type: in vivo, ICR mice; details: 60 min nesting period
[10] = test system: 0.6% acetic acid-induced writhing in mice; test: 0.6% acetic acid-induced writhing; type: in vivo, ICR mice; details: s.c. pretreatment, 25 min observation
[11] = biological target: α4-containing GABAA receptors (with β3, γ2L) (Rattus norvegicus, UniProt P18508+P28471, INS375LLRMFSFK); type: cell-based; details: 1 μM modulator, 0.3 μM GABA
[12] = biological target: α6-containing GABAA receptors (with β3, γ2L) (Rattus norvegicus, UniProt P18508+P30191, INS375LLRMFSFK); type: cell-based; details: 1 μM modulator, 0.1 μM GABA
[13] = test system: rat models of inflammatory and neuropathic pain; details: cited from earlier work
[14] = test system: formalin test; details: only partially effective; cited from earlier work
[15] = test system: spontaneous locomotor activity in naïve mice; test: Baseline locomotor activity without acid; type: in vivo, ICR mice; details: doses used for the pain studies

SMILES | EC50 [1] [µM] | peak response (potentiation of the response to GABA) [1] [%] | EC50 [2] [µM] | peak response (potentiation of the response to GABA) [2] [%] | sedation at a larger dose [3] | EC50 [4] [µM] | peak response (potentiation of the response to GABA) [4] [%] | effect on locomotor activity of acetic acid-treated mice (in words) [5] | effect on locomotor activity of lactic acid-treated mice (in words) [6] | effect on […] lactic acid-induced writhing (in words) [7] | modulation of GABA response at α5-containing receptors (in words) [8] | effect on the decrease in cleared zones by acetic acid (nesting, in words) [9] | effect on 0.6% acetic acid-induced writhing (in words) [10] | also measured
C#Cc1ccc2c(c1)C(c1ccccc1F)=NCc1c(-c3cnco3)ncn1-2 [KRM-II-18B, 5-(8-ethynyl-6-(2-fluorophenyl)-4H-benzo[f]imidazo[1,5-a][1,4]diazepin-3-yl) oxazole] | 0.739 ± 0.252 | 410.6 ± 26.3 | 0.169 ± 0.0398 | 383.0 ± 33.2 | marked sedation | 0.261 ± 0.116 | 320.0 ± 14.3 | failed to restore | failed to restore | decreased | significant efficacy | failed to significantly attenuate | dose-dependently decreased | selectivity among the three subtypes (α1, α2, α3) ([1]; in words): no significant selectivity
C#Cc1ccc2c(c1)C(c1ccccn1)=NCc1c(-c3cnco3)ncn1-2 [KRM-II-81, 5-(8-ethynyl-6-(pyridin-2-yl)-4H-benzo[f]imidazo[1,5-a][1,4]diazepin-3-yl) oxazole] | 1.73 ± 0.69 | 316.9 ± 38.6 | 0.0609 ± 0.0116 | 352.2 ± 38.0 | marked sedation | 0.102 ± 0.0285 | 350.1 ± 21.5 | failed to restore | failed to restore | decreased | much less sensitive; also recorded: negligible efficacy | failed to significantly attenuate | dose-dependently decreased | modulation of GABA response at α4-containing receptors (in words) [11]: negligible efficacy; selectivity on α3 subtype over α1 subtype GABAA receptors ([2]; from EC50 values): 28 fold; selectivity on α2 subtype over α1 subtype GABAA receptors ([4]; from EC50 values): 17 fold; modulation of GABA response at α6-containing receptors (in words) [12]: negligible efficacy
CC(C)(O)c1ccc2c(c1)ncn2-c1cccc(-c2ccccc2C#N)c1 [NS11394, 3′-[5-(1-hydroxy-1-methyl-ethyl)-benzoimidazol-1-yl]-biphenyl-2-carbonitrile] |  |  |  |  |  |  |  |  |  |  |  |  |  | antinociceptive effects in rat models of inflammatory and neuropathic pain [13]: significant antinociceptive effects; sedation at the antinociceptive doses ([13]; rat, same doses): does not produce sedation; reduction in the formalin test [14]: 33%
CC(=O)Nc1ccc(O)cc1 [acetaminophen, reference compound] |  |  |  |  |  |  |  | dose-dependently increased | dose-dependently increased |  |  |  |  | effect on locomotor / spontaneous activity without acid [15]: did not significantly change
